Experiments:
[1] = target: T1, Cut3–Cut14 (condensin SMC heterodimer; Cut3/SMC4–Cut14/SMC2) (Schizosaccharomyces pombe, UniProt P41003+P41004); test: inhibition of γ-32P labelling, autoradiography; assay type: biochemical; conditions: 1 mM nucleotide pre-incubated 5 min; ATP 8 nM hot, 50 nM cold; 30 min, 30 °C
T1 construct: full-length SMC heterodimer co-overproduced in S. pombe; C-terminal tags kept (Cut14-3HA-His6; Cut3 mutants 8Myc)
T1 sequence (P41004 1-1324): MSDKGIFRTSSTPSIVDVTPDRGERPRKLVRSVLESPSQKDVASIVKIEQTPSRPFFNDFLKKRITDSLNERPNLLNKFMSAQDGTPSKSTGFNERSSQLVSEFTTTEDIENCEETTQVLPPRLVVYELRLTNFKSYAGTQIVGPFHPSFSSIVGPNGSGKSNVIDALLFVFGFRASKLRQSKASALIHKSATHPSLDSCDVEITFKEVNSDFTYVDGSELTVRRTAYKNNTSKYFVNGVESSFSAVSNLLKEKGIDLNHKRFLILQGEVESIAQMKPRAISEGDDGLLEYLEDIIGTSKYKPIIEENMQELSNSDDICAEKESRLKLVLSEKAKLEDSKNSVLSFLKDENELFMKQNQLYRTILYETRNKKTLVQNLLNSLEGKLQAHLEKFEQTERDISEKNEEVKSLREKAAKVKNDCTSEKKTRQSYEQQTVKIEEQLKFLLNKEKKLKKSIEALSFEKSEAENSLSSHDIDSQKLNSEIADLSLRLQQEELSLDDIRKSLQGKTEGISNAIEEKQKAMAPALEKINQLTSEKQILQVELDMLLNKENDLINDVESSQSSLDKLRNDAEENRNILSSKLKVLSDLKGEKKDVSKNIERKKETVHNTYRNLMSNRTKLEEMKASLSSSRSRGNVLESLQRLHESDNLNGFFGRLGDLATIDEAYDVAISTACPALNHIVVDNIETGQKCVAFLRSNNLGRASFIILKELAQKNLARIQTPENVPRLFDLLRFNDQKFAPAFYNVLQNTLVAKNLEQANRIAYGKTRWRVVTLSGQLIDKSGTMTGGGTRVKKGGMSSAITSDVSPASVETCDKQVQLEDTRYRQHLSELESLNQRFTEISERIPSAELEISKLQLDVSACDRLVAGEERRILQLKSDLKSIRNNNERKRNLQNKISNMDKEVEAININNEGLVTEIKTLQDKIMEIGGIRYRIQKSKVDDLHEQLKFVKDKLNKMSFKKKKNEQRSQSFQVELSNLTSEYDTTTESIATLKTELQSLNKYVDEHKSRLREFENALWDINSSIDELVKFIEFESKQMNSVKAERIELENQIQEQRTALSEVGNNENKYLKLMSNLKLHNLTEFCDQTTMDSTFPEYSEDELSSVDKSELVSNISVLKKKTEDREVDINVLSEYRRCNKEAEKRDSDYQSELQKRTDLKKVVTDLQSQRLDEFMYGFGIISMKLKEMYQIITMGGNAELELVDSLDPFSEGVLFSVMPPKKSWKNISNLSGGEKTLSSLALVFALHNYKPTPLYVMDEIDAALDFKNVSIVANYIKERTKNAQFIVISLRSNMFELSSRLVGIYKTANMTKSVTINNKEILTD
T1 sequence (P41003 1-1172): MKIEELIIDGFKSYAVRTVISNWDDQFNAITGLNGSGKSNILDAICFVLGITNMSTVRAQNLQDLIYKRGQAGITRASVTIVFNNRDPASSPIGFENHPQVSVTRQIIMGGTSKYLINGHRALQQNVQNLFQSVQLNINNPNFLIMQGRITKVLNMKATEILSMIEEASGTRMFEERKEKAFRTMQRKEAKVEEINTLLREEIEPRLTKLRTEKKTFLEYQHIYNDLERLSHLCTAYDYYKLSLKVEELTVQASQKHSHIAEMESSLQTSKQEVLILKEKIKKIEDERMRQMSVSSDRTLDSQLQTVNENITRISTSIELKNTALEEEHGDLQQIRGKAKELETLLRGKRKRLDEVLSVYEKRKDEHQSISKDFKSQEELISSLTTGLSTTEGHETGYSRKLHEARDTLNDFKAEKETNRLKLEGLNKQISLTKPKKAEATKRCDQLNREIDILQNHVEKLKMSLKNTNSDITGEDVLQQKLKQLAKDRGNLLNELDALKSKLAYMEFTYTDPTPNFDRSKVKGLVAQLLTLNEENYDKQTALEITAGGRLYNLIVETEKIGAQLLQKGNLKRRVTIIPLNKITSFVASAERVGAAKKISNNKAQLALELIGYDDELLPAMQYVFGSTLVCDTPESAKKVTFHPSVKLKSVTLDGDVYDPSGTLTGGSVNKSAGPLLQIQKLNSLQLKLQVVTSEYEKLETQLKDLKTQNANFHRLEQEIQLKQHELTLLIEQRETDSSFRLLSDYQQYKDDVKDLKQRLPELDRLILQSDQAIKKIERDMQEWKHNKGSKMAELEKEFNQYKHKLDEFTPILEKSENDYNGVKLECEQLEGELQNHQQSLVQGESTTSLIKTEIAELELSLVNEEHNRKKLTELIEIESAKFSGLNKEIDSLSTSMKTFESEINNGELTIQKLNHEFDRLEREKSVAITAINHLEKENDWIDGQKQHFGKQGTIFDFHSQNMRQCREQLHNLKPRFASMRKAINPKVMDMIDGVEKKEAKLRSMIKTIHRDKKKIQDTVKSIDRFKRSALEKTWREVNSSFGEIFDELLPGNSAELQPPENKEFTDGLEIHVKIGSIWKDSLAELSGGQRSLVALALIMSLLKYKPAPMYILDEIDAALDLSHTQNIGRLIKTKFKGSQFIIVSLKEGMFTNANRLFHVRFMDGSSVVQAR

[2] = target: T1, Cut3–Cut14 (condensin SMC heterodimer; Cut3/SMC4–Cut14/SMC2); test: thiophosphorylation, PNBM alkylation, anti-thiophosphate ester western blot; assay type: biochemical; conditions: covalent thiophosphoryl transfer to Cut3; 10 mM ATPγS

| SMILES | inhibition of γ-32P labelling, autoradiography [1] | thiophosphorylation, PNBM alkylation, anti-thiophosphate ester western blot [2] |
| --- | --- | --- |
| Nc1ncnc2c1ncn2[C@@H]1O[C@H](COP(=O)(O)OP(=O)(O)NP(=O)(O)O)[C@@H](O)[C@H]1O [AMP-PNP] | Some labelling occurred in an excess of AMP-PNP |  |
| Nc1ncnc2c1ncn2[C@@H]1O[C@H](COP(=O)(O)OP(=O)(O)OP(O)(O)=S)[C@@H](O)[C@H]1O [ATPγS] |  | Antibody against ATPγS detected Cut3 protein in the heterodimer after incubation in the presence of ATPγS |
